The results in this text go back to US3954764A, “Dibenzo [b,f]thiepins bearing piperazinyl substitution” (priority 1973, dated 1976).

Data set [1] concerns mice. Description: Rotating Rod Test. Format: in vivo, mouse. The following applies: for ED50: Mus musculus, po, read-out: ED50 (dose which reduces the holding on period by 50 percent); for Rotating Rod Test activity in words: compared with chlorpromazine. The method, then:
In the Rotating Rod Test, the ability of mice to achieve a coordinated motor performance is investigated. After peroral administration of the test substance, the mice are placed upon a horizontal slowly rotating rod and the time they remain on the rod is recorded. The ED50 is that dose which reduces the holding on period of the mice by 50 percent as compared to the holding on period prior to the administration of the test substance.

The test system of data set [2] is homovanillinic acid (turnover of dopamine in the basal ganglions). Description: Determination of Homovanillinic Acid. The format is in vivo, rat. The note with it: rats; for Increase in HVA, percent: 2 hours before killing, untreated = 100 percent. The procedure:
Two hours prior to being killed, rats are injected with the test substance.
Thereafter, the homovanillinic acid is extracted from the supernatant portion of a homogenized mixture of the brains of the treated rats into butyl acetate and later into an aqueous solution and is oxidized with potassium ferric cyanide to a fluorescent dimer. […] The homovanillinic acid titer in untreated rats is arbitrarily set at 100 percent.

Data set [3] is described as follows: Acute toxicity in the mouse. The following applies: in vivo, po.
In data set [4] the test system is rats. Description: Catalepsy test (i.p., rats; number of cataleptic animals recorded every 30 minutes over 6 hours). The format is in vivo, rat. The method, then:
(§1) The following compounds were tested:
(§2) The foregoing compounds were compared to chlorpromazine, a well-known central depressant, especially well known as a neuroleptic agent.
(§3) The test animals are considered to be cataleptic when the homolateral extremities remain in the crossed position for at least 10 seconds. The number of cataleptic animals is recorded every 30 minutes over a 6-hour period. The ED50 is the dose at which 50 percent of the animals are cataleptic.

Assay in data set [5]: as above
The format is in vivo, rat. The following applies: rat, in vivo, ip. The method, then:
as §1, §2, §3

In data set [6] the test system is rats. Nature of the data set: "Pole Climbing" Test. Format: in vivo, rat. The note with it: for ED50: Rattus norvegicus, po, read-out: ED50 (blocking of the conditioned reaction); for neuroleptic action in words / quality (selectivity) of the neuroleptic action in words: compared with chlorpromazine. The procedure:
(§4) This test provides information about behavioral reactions of rats. Rats are trained to avoid, by climbing up a vertical pole in the test chamber, an electrical impulse (unconditioned impulse) released via the wire-latticed floor some seconds after an acoustic signal (conditioned impulse).
(§5) The blocking of the conditioned reaction is determined by the parameter ED50 (mg/kg p.o.); the blocking of the unconditioned reaction is determined by a parameter ED10 (mg/kg. p.o.).
(§6) The parameter ED50 (blocking of the conditioned reaction) gives a measure of the neuroleptic strength of action of the test substance. The quotient ED10 (blocking of the unconditioned reaction)/ED50 (blocking of the conditioned reaction) gives a measure of the quality of action of the test substance since, with increasing quotient, a greater selectivity of the neuroleptic action (slighter neurotoxic side-effect) is present.

A short description of data set [7]: "Pole Climbing" Test. Format: in vivo, rat. The following applies: rat, in vivo, po; rats, p.o.; higher quotient = greater selectivity of neuroleptic action; read-out: Quotient ED10 (blocking of the unconditioned reaction) / ED50 (blocking of the conditioned reaction). The method, then:
as §4, §5, §6

Setting [8] is: rats, intraperitoneal, 6-hour period, read-out: ED50 (dose at which 50 percent of the animals are cataleptic).

“Also recorded” adds a separate entry of the source. Where two headings read alike, the source gives them in different places.

As a reminder, the ED50 is the dose at which the effect has come halfway, by size or by number of responders. By LD50 is commonly meant the dose at which mortality reaches 50%. Read a high LD50 as a less toxic substance. On to `CN(C)CCCN1c2ccccc2Sc2ccc(Cl)cc21` [Chlorpromazine, reference compound], for which the ED50 in data set [1] is 5 mg/kg; in data set [6] (rats, p.o.), 11.8 mg/kg. In addition, in data set [2] (20 mg/kg p.o.), the “Increase in HVA, percent” value worked out at 321%. The same compound yielded an LD50 at 24 h in data set [3] of 200 mg/kg. For the same compound, the “cataleptic activity in words” value in data set [4] (rat, in vivo) is given as “does demonstrate cataleptic effect”. Also, the TD50 at 6 h in data set [5] (setting [8]) was determined as 6 mg/kg. The selectivity ratio in data set [7] was determined as 2.5.
For the compound `Cc1ccc2c(c1)CC(N1CCN(CCN3CCCC3=O)CC1)c1cc(Cl)ccc1S2.O=C(O)/C=C\C(=O)O` (stereo not drawn) [Product A, 1-{2-[4-(8-chloro-10,11-dihydro-2-methyl-dibenzo[b,f]thiepin-10-yl)-1-piperazinyl]-ethyl}-2-pyrrolidinone maleate], in data set [1] (mice, peroral), the ED50 was determined as 7.3 mg/kg. Further, in data set [1] (mice, peroral, maleate), the “Rotating Rod Test activity in words” value was “strong activity; also recorded: approximates that of chlorpromazine”. Moreover, in data set [2], the “HVA test activity in words” value is reported as “nearly as potent as that of chlorpromazine”. In addition, the “Increase in HVA, percent” value in data set [2] (50 mg/kg p.o.) was found to be 295%. Also, the LD50 at 24 h in data set [3] was found to be 3750 mg/kg. Moreover, the “cataleptic activity in words” value in data set [4] (as compared to chlorpromazine) was “no cataleptic effect”. Moreover, the TD50 at 6 h in data set [5] (setting [8]) is more than 100 mg/kg.
For `O=C(O)/C=C\C(=O)O.O=C1OCCN1CCN1CCN(C2Cc3cc(Cl)ccc3Sc3cc(F)ccc32)CC1` (stereo not drawn) [Product B, 3-{2-[4-(2-chloro-7-fluoro-10,11-dihydrodibenzo[b,f]thiepin-10-yl)-1-piperazinyl]-ethyl}-2-oxazolidinone maleate], in data set [2], the “HVA test activity in words” value is recorded as “nearly as potent as that of chlorpromazine”. The “Increase in HVA, percent” value in data set [2] (50 mg/kg p.o.) is 270%. This compound also came in with an LD50 at 24 h in data set [3] of 900 mg/kg. Moreover, the “cataleptic activity in words” value in data set [4] (as compared to chlorpromazine) is recorded as “no cataleptic effect”. The TD50 at 6 h in data set [5] (setting [8]) is more than 100 mg/kg.
`Cc1ccc2c(c1)CC(N1CCN(CCN3CCOC3=O)CC1)c1cc(F)ccc1S2` (stereo not drawn) [Product C, 3-{2-[4-(8-fluoro-10,11-dihydro-2-methyl-dibenzo[b,f]thiepin-10-yl)-1-piperazinyl]-ethyl}-2-oxazolidinone]: in data set [1] (mice, peroral), the ED50 worked out at 2.1 mg/kg and the “Rotating Rod Test activity in words” value is reported as “strong activity; also recorded: superior to that of chlorpromazine”. In addition, the “Increase in HVA, percent” value in data set [2] (50 mg/kg p.o.) was 235%. The compound further yielded an LD50 at 24 h in data set [3] of 1880 mg/kg. In addition, in data set [4] (as compared to chlorpromazine), the “cataleptic activity in words” value was “very weak cataleptic activity”. Also, the TD50 at 6 h in data set [5] was determined as 75 mg/kg. In addition, in data set [6] (rats, p.o.), the 50% effective dose (ED50) came out at 14 mg/kg. In data set [6] (rats), the “neuroleptic action in words” value is listed as “lies somewhat below that of chlorpromazine” and the “quality (selectivity) of the neuroleptic action in words” value (“quality (selectivity)” for short) is given as “substantially exceeds that of chlorpromazine”. The selectivity ratio in data set [7] is 23.
In the case of `O=C(O)/C=C\C(=O)O.O=C1OCCN1CCN1CCN(C2Cc3cc(Cl)ccc3Sc3ccc(F)cc32)CC1` (stereo not drawn) [Product D, 3-{2-[4-(2-chloro-8-fluoro-10,11-dihydrodibenzo[b,f]thiepin-10-yl)-1-piperazinyl]-ethyl}-2-oxazolidinone maleate], in data set [1] (mice, peroral), the ED50 is 1 mg/kg. For the same compound, in data set [1] (mice, peroral, maleate), the “Rotating Rod Test activity in words” value was “strong activity; also recorded: superior to that of chlorpromazine”. Moreover, the “HVA test activity in words” value in data set [2] is “nearly as potent as that of chlorpromazine”. In addition, in data set [2] (45 mg/kg p.o.), the “Increase in HVA, percent” value worked out at 300%. Also, the LD50 at 24 h in data set [3] was found to be 450 mg/kg. For the same compound, in data set [4] (as compared to chlorpromazine), the “cataleptic activity in words” value is “considerably lower cataleptic activity”. In data set [5] (setting [8]), the TD50 at 6 h was 45 mg/kg. The ED50 in data set [6] stood at 17 mg/kg. In data set [6] (rats), the “neuroleptic action in words” value is “lies somewhat below that of chlorpromazine” and the “quality (selectivity)” value is reported as “substantially exceeds that of chlorpromazine”. Besides, the selectivity ratio in data set [7] came out at 7.6.
Turning to `CSc1ccc2c(c1)C(N1CCN(CCN3CCOC3=O)CC1)Cc1cc(C)ccc1S2.O=C(O)/C=C\C(=O)O` (stereo not drawn) [Product E, 3-{2-[4-(10,11-dihydro-2-methyl-8-methylthiodibenzo[b,f]thiepin-10-yl)-1-piperazinyl]-ethyl}-2-oxazolidinone maleate], the “Increase in HVA, percent” value in data set [2] (50 mg/kg p.o.) worked out at 255%. The compound also showed an LD50 at 24 h in data set [3] of 3750 mg/kg. Moreover, the “cataleptic activity in words” value in data set [4] (as compared to chlorpromazine) is listed as “considerably lower cataleptic activity”. Also, the TD50 at 6 h in data set [5] (setting [8]) was 45 mg/kg. Besides, the ED50 in data set [6] amounted to 25 mg/kg. Also, in data set [6] (rats), the “neuroleptic action in words” value was “lies somewhat below that of chlorpromazine” and the “quality (selectivity)” value is recorded as “substantially exceeds that of chlorpromazine”. For the same compound, the selectivity ratio in data set [7] amounted to 12.
